Reference: US20260144808A1, “TREATMENT OF REPEAT EXPANSION DISEASE” (The Johns Hopkins University, priority 2022, published 2026)

How the values were obtained:
C9orf72 V2 transcripts = assay: RT-qPCR analysis of C9V2 mRNA levels in human RPE1 cells after drug treatment; type: cell-based; conditions: 24 h; for C9V2 mRNA, as measured by RT-qPCR: increasing concentrations of TM or TG, FIG. 13G; for levels of C9orf72 V2 transcripts: vs DMSO, FIG. 13J
Protocol: (§1) Cell culture, drug treatment, lentiviral shRNA knockdown, and live-cell imaging—HEK293 cells and mouse embryonic fibroblast (MEF) cells were cultured in DMEM containing 10% FBS. Human retinal pigment epithelial 1 (RPE1) cells were cultured in DMEM/F12 containing 10% FBS and 0.01 mg/ml hygromycin B. Human B lymphocytes were cultured in RPMI 1640 medium containing 15% FBS. Human iPSCs were obtained from the NINDS Human Cell and Data Repository and maintained in StemFlex medium (Gibco, A3349401), with medium exchange every other day. All cell lines were checked regularly for mycoplasma contamination. To induce cell stress, RPE1 cells were treated with thapsigargin (30 nM) or tunicamycin (5 μg/ml) for 24 h, and B lymphocytes were treated with thapsigargin (40 nM) or tunicamycin (1 μg/ml) for 24 h. To express PR82, RPE1 cells were transfected with the pLenti-PR82 plasmid and cultured for 48 h.
(§2) Quantitative PCR— Total RNAs were extracted with an RNeasy Plus mini kit (Qiagen, 74136), and cDNAs were synthesized using QuantiTect reverse transcription reagents (Qiagen, 205313). qPCR reactions were carried out on a Bio-Rad thermal cycler using PowerUp SYBR Green Master Mix (ThermoFisher Scientific). The primer sets for C9orf72 transcripts V1, V2, and V3 were described previously (Gendron et al., 2017, incorporated herein by reference). The expression of C9orf72 pre-mRNA was measured with a pair of primers targeted to the junction region between exon 2 and intron 3 (SEQ ID NO: 11 and 12). The mRNA expression levels were analyzed by the ΔΔCt method and normalized against housekeeping genes. In the promoter analysis, the EGFP transcription level was normalized to the GAPDH transcript and the plasmid-encoded ampicillin resistance (AmpR) transcript to exclude any bias induced by differential transfection efficiency.

C9orf72 protein and mRNA = assay: Stress-induced C9orf72 expression in control and C9HRE B lymphocytes (immunoblotting, RT-qPCR); type: cell-based, human; conditions: tunicamycin 1 μg/ml or thapsigargin 40 nM, 24 h; for dynamic regulation of C9orf72 expression: B lymphocytes from C9HRE patients; for stress-responsive induction of C9orf72 expression at both the protein and mRNA levels: normal B lymphocytes
Protocol: as §1, §2
Immunoblotting—Cultured cells were washed twice with PBS and lysed in cold RIPA buffer containing 50 mM Tris (pH 7.5), 0.5% SDS, 150 mM NaCl, 0.5% NP40, 20 mM EDTA, 1 mM PMSF, and Protease Inhibitor Cocktail (1:200, Millipore Sigma, P8340).
(§3) Protein concentrations were measured by the bicinchoninic acid assay (ThermoFisher, 23225). […] Western blot images were captured by an Odyssey scanner (LI-COR) and analyzed with Image Studio (version 5.2.5). […]

C9orf72 V2 promoter = assay: ChIP-qPCR of H3K9me3 and H3K27ac at the C9orf72 V2 promoter in human RPE1 cells; type: cell-based; conditions: 24 h, vs DMSO, FIG. 13I
Protocol: as §1
Chromatin immunoprecipitation qPCR—ChIP-qPCR analysis of RPE1 cells, B lymphocytes, and iPSC-differentiated motor neurons was performed by using a CHIP assay kit (Millipore Sigma, 17-295). In brief, protein complexes were crosslinked with 1% formaldehyde at 37° C. for 10 min and quenched with glycine at a final concentration of 125 mM at 37° C. for 5 min. […]

C9V2 mRNA = assay: RT-qPCR analysis of C9V2 mRNA in HEK293 cells after stressor treatment; type: cell-based, human; conditions: increasing concentrations of TM or TG, 24 h, FIG. 13F
Protocol: as §1, with “To express PR82, RPE1 cells were transfected with the pLenti-PR82 plasmid and cultured for 48 h.” left out
(§4) Quantitative PCR— Total RNAs were extracted with an RNeasy Plus mini kit (Qiagen, 74136), and cDNAs were synthesized using QuantiTect reverse transcription reagents (Qiagen, 205313). qPCR reactions were carried out on a Bio-Rad thermal cycler using PowerUp SYBR Green Master Mix (ThermoFisher Scientific). […] The expression of C9orf72 pre-mRNA was measured with a pair of primers targeted to the junction region between exon 2 and intron 3 (SEQ ID NO: 11 and 12). The mRNA expression levels were analyzed by the ΔΔCt method and normalized against housekeeping genes. […]

C9HRE iMNs = assay: Neuronal survival of C9HRE iMNs under tunicamycin stress, calcein-AM staining; type: cell-based, human
Protocol: (§5) Motor neuron differentiation of human iPS cells and experimental analyses—The differentiation of iPSCs into motor neurons was performed as previously described (Liu et al., 2018). In brief, iPSCs were seeded onto Matrigel-coated plates and differentiated into neuroepithelial progenitor cells (NEPCs) by culturing 6 days in neural medium (1:1 DMEM/F12:neurobasal medium. GlutaMax, N2 supplement, B27 supplement, and ascorbic acid) containing 3 μM […], 2 μM SB431542, and 2 μM DMH-1. NEPCs were dissociated with dispase (1 U/ml) and split into new plates coated with Matrigel at a ratio of about 1:6. NEPCs were differentiated into motor neuron progenitor cells (MNPCs) using neural medium supplemented with 1 μM CHIR99021, 2 μM SB431542, 2 μM DMH-1, 0.1 μM retinoic acid (RA), and 0.5 μM purmorphamine. After culturing for 6 days, MNPCS were dissociated and cultured in suspension using neural medium containing 0.5 μM RA and 0.1 μM purmorphamine. Six days later, neural spheres were dissociated and plated onto a Matrigel-coated plate. Adherent neural spheres were cultured in neural medium supplemented with 0.5 μM RA, 0.1 μM purmorphamine, and 0.1 μM compound E. After 12 days, mature motor neurons were provided for experiments. The medium was changed every other day during the entire differentiation period.
For knockdown experiments on motor neurons, iMNs were infected twice with the shRNA-expressing lentiviruses, on day 10 and day 12 at the final differentiation stage, and the cells were used on day 15 to allow for efficient DAXX knockdown. Mature iMNs were stressed with tunicamycin (5 μg/ml) in the presence of Na-Phen (10 μM) or 5-aza-2 ([…]) for the indicated times, and neuronal survival at each time point was measured by calcein-AM staining. In brief, iMNs were stained with 3 μM calcein-AM (Invitrogen, C1430), and the fluorescence of surviving iMNs was read using a plate reader (Synergy H1 Hybrid) with excitation/emission at 485 nm/535 nm. Optical fields with calcein-positive iMNs were randomly selected and images captured using a fluorescence microscope (Nikon Eclipse TS100).

[1] = test system: mutant SOD1 mouse model of ALS; conditions: Ryu et al., 2005; cited from earlier work
[2] = test system: C9orf72 protein and V2 mRNA; assay: Stress-induced C9orf72 expression in control and C9HRE iMNs (immunoblotting, RT-qPCR); type: cell-based, human; conditions: tunicamycin 5 μg/ml, 24 h
Protocol: as §5, §4, §3

DAXX = DAXX (Homo sapiens, UniProt Q9UER7 Q9UER7:1-740); assay: EMSA; significantly preferential over random control; 50 nM probe, 10 mM Tris pH 7.5, 1 mM EDTA, 0.1 mM DTT, BSA, 5% glycerol, RT 30 min; conditions: tags: Flag-DAXX (Flag-Daxx/pRK5, Addgene 27974), anti-Flag M2 purified from HEK293 per Methods; label: 5' Alexa Fluor 488 on one strand
DAXX, sequence (Q9UER7 whole entry, one chain of several): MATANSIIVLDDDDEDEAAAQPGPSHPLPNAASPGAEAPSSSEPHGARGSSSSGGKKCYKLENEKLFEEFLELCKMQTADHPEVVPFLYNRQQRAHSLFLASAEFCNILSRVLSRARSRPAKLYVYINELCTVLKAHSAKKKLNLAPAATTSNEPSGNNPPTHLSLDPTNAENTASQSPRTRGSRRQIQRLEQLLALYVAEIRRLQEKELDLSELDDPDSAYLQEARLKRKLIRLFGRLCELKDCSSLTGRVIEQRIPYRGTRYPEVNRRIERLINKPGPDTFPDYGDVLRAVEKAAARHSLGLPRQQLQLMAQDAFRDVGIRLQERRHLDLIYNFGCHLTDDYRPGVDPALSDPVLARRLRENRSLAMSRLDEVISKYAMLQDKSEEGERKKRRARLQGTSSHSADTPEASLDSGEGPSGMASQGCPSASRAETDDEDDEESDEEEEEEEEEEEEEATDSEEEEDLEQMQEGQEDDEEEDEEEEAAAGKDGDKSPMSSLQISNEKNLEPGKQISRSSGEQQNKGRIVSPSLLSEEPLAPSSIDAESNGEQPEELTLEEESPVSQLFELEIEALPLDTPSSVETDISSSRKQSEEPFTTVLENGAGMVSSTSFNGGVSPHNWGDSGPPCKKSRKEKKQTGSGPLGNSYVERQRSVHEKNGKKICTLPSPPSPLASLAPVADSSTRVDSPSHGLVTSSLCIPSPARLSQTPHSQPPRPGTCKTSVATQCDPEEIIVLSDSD
Protocol: Several assays were used to validate the interaction between DAXX and the G4C2 repeat dsDNA. […] Next, experiments were conducted to test whether DAXX protein and G4C2 repeat dsDNA interact directly. In these experiments, human DAXX protein (FIG. 8D) was purified and an electrophoresis mobility shift assay (EMSA) was performed using 5′ AlexaFluor 488-labeled (G4C2)₁₀ dsDNA or a length-matched random sequence control. […] In addition, experiments were performed to establish the association of endogenous DAXX with the expanded C9orf72 (G4C2)n DNA repeats in situ. In these experiments, DNA fluorescent in situ hybridization (FISH) was used to immunostain DAXX on multiple lines of ALS and/or FTD patient lymphocytes carrying C9orf72 HRE mutations. A co-localization between the DAXX immunostaining and FISH staining at the C9HRE locus was indicated by a well-demarcated punctum present only in the nuclei of patient cells and not in the control cells (FIG. 1A).

C/C=C(/C)C(=O)O[C@H]1C(C)=C2[C@H]([C@@H]1OC(=O)CCCCCCC)[C@@](C)(OC(C)=O)C[C@H](OC(=O)CCC)[C@@]1(O)[C@H]2OC(=O)[C@@]1(C)O [thapsigargin]
C9V2 mRNA, as measured by RT-qPCR (C9orf72 V2 transcripts): stress-dependent induction
dynamic regulation of C9orf72 expression (C9orf72 protein and mRNA): lost
stress-responsive induction of C9orf72 expression at both the protein and mRNA levels (C9orf72 protein and mRNA): observed
levels of the repressive marker H3K9me3 at the C9orf72 V2 promoter (C9orf72 V2 promoter; TG 30 nM): decreased
C9V2 mRNA, as measured by RT-qPCR (C9V2 mRNA): stress-dependent induction

O=C([O-])CCCc1ccccc1.[Na+] [Na-Phen, sodium phenylbutyrate]
levels of C9orf72 V2 transcripts (C9orf72 V2 transcripts; Na-Phen 10 μM): significantly upregulated
protection of C9HRE iMNs from tunicamycin-induced stress (C9HRE iMNs; TM 5 μg/ml with Na-Phen 10 μM, vs DMSO, FIG. 7C, D): robust protection
survival in a mutant SOD1 mouse model of ALS [1]: prolongs the survival

tunicamycin
C9V2 mRNA, as measured by RT-qPCR (C9orf72 V2 transcripts): stress-dependent induction
loss of C9HRE iMNs (C9HRE iMNs; tunicamycin 5 μg/ml alone, FIG. 7A, B): time-dependent loss
tunicamycin-induced upregulation of C9orf72 expression ([2]; iMNs derived from C9HRE patients, FIG. 5A-C): absent
C9orf72 protein levels ([2]; iMNs from healthy individuals, vs DMSO, FIG. 5A-B): significantly increased
C9orf72 V2 mRNA levels ([2]; iMNs from healthy individuals, vs DMSO, FIG. 5C): significantly increased
dynamic regulation of C9orf72 expression (C9orf72 protein and mRNA): lost
stress-responsive induction of C9orf72 expression at both the protein and mRNA levels (C9orf72 protein and mRNA): observed
levels of the active marker H3K27ac at the C9orf72 V2 promoter (C9orf72 V2 promoter; TM 5 μg/ml): elevated
C9V2 mRNA, as measured by RT-qPCR (C9V2 mRNA): stress-dependent induction

Nc1ncn([C@H]2C[C@H](O)[C@@H](CO)O2)c(=O)n1 [Compound 5-aza-2, 5-aza-2′-deoxycytidine]
levels of C9orf72 V2 transcripts (C9orf72 V2 transcripts; 5-aza-2 2 μM): significantly upregulated
survival of C9HRE iMNs exposed to tunicamycin (C9HRE iMNs; TM 5 μg/ml with 5-aza-2 2 μM, vs DMSO, FIG. 7C, D): significant increase

B1: (G4C2)10 dsDNA (dsDNA)
DNA 1: GGGGCCGGGGCCGGGGCCGGGGCCGGGGCCGGGGCCGGGGCCGGGGCCGGGGCCGGGGCC
DNA 2: GGCCCCGGCCCCGGCCCCGGCCCCGGCCCCGGCCCCGGCCCCGGCCCCGGCCCCGGCCCC
binding result (DAXX): binds
